From patent US20080154179A1 (priority 2005, published 2008)
Converted amounts (≈) assume the structure as drawn. “Also recorded” adds a separate entry of the source.

Columns and labels:
[1] = In-vitro transdermal iontophoretic delivery of primaquine patch through epidermal membranes in Mattek permeation device
[2] = cited from earlier work; for transdermal delivery into and across human skin: literature, primaquine: simple transdermal patch, full-thickness excised human skin
[3] = Stability of primaquine after exposure to iontophoresis by TLC of receptor compartment; settings: receptor compartment contents, silica gel, n-butanol:acetic acid:water (5:3:2)
[4] = blood level; cited from earlier work
plasma cholinesterase = target: T1, plasma cholinesterase (Homo sapiens, UniProt P06276); assay: Selective inhibition of cholinesterase activity in plasma samples treated with quinidine; assay type: biochemical; settings: quinidine 20 μM, BTC vs other substrate
T1 construct: plasma samples that were treated with quinidine (20 μM); from tissue; host or cells: plasma
T1 sequence (P06276 29-602): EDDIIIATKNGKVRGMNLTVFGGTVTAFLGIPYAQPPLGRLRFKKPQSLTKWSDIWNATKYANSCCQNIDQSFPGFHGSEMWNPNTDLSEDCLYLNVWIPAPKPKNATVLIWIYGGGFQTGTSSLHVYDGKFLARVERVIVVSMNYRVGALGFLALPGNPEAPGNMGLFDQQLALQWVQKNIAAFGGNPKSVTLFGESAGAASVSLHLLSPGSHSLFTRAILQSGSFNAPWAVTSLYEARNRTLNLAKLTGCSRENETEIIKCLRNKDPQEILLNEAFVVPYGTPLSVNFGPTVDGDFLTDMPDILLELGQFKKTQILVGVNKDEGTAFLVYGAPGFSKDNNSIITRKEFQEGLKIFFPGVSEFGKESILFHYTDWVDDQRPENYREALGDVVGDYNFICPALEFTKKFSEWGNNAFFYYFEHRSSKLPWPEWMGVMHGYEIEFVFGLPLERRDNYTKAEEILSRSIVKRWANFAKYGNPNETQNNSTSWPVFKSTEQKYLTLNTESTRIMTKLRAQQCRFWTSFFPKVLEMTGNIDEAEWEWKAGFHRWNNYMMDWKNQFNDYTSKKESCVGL

[5] = relative to base line; cited from earlier work

COc1cc(NC(C)CCCN)c2ncccc2c1 (centres unmarked) [primaquine]
passive diffusion before and after iontophoresis ([1]; human epidermal membrane, no current, receptor PBS pH 7.4): Minimal passive diffusion
amount delivered using electrotransport ([1]; in 40 minutes): 160 µg
transdermal delivery into and across human skin [2]: could deliver a therapeutic in vivo dose
share of the 10 mg dose delivered passively each hour ([2]; passive delivery, per hour): Approximately 5%
amount that can be delivered transdermally ([2]; within 24 hours, to achieve therapeutic plasma concentrations): 10 mg
stability of the primaquine molecule after exposure to iontophoresis (TLC) [3]: intact primaquine is present; also recorded: there is more than one species of molecule present
therapeutic dosage (level) for the treatment of malaria [4]: 0.03 µg/mL

CN1CCCC1c1cccnc1 (centres unmarked) [nicotine]
solubility (physchem): 50 mg/mL (≈ 308 mM)

C=C[C@H]1C[N@@]2CC[C@H]1C[C@@H]2[C@@H](O)c1ccnc2ccc(OC)cc12 [quinidine]
inhibitory effect on plasma cholinesterase activity (plasma cholinesterase): the inhibitory effect was observed only when BTC was used

CC1CCC(C(C)C)C(O)C1 (centres unmarked) [menthol]
increase in skin flux [5]: up to eight times the base line

C[C@H]1c2cccc(O)c2C(=O)C2=C(O)[C@]3(O)C(=O)C(C(N)=O)=C(O)[C@@H](N(C)C)[C@@H]3[C@@H](O)[C@@H]21 [doxycycline]
transdermal delivery into and across human skin [2]: significant amounts
